Test results: US7608716B2, “Pyrazolonaphthyridine derivative” (Aska Pharmaceutical Co., Ltd., priority 2002, dated 2009)

Assays:
TNF-α production = assay: Inhibition of TNF-α production in galactosamine- and LPS-stimulation; format: in vivo; conditions: Mus musculus; C3H/HeN mice, oral, 1 hour before galactosamine/LPS i.v.; serum TNF-α by ELISA 1 hour later; read-out: Inhibition of TNF-α production ED50: mg/kg orally
Description: A suspension of each test compound in 0.5% CMC-Na solution was administered orally to C3H/HeN mice at a dose of 0.10 to 10 mg/kg. One hour later, the animals received intravenously galactosamine at a dose of 800 mg/kg and LPS at a dose 5 μg/kg to raise the induction of TNF-α production. One hour later after the galactosamine- and LPS-administration, amounts of TNF-α in serum samples were measured by ELISA, and ED50 was obtained. Roflumilast and SB207499 were used for the reference compounds in this assay.

[1] = test system: actively sensitized guinea pigs; assay: Inhibition of antigen-induced immediate asthmatic response (airway resistance, Konzett-Rossler); format: in vivo, Hartley guinea pigs; conditions: Cavia porcellus, oral, 60 minutes prior to antigen-challenge, reduction of increase in airway resistance, read-out: Inhibition of Asthmatic response ED50: mg/kg orally
Description: Male Hartley outbred guinea pigs were sensitized by administering intraperitoneally physiological saline (0.5 ml) containing ovalbumin (1 mg, antigen) and 5×10^9 inactivated Bordetella pertussis dead cells (adjuvant). Eleven to thirteen days after the first sensitization, 0.05 ml of an ovalbumin solution (1 mg/ml) (ovalbumin is dissolved in physiological saline) was administered to the lateroabdominal region of each guinea pig intracutaneously. An establishment of sensitization was checked relying on cutaneous reaction. Only guinea pigs wherein significant reddening responses occurred 5 to 10 minutes later were employed in the next measurement test for airway resistance.
The guinea pigs (3 animals per group) actively sensitized in the above step (1) were employed to measure for their airway pressure according to Konzett-Rossler method (Arch. Exp. Path. Pharmakol., 195, 71 (1940)).
Thirteen days after the final sensitization, guinea pigs fasted overnight, and were on the next day anesthetized with a pentobarbital solution (30 mg/1.2 ml/kg, dissolved in physiological saline, intraperitoneal administration). After the guinea pigs were fixed in a supine position, their trachea was incised followed by insertion with one port of a 4-port cannula. Among the remaining 3 ports, 2 ports were connected to an artificial respirator (Model 683, Harvard). The animals were ventilated with 10 ml/kg of air per ventilation at a rate of 60 beats/min via the artificial respirator from the cannula. One port remainder was connected to a respiratory amplifier (AR-601G, Nihon Kohden, Japan) via an airflow resistance tube (TV-241T, Nihon Kohden, Japan) and a differential pressure transducer (TP-602T, Nihon Kohden, Japan) connected with a control box (RY-111S, Nihon Kohden, Japan). From a catheter inserted into a left carotid artery, blood pressures were monitored with a blood pressure measurement unit (AP641G, NEC Corp., Japan) via a blood pressure transducer (TP-300T, Nihon Kohden, Japan), and heart rates were recorded on a thermal recorder (WT-685G, Nihon Kohden, Japan), relying on blood pressure pulse waves after being led to a cardiograph unit (AT601G, Nihon Kohden, Japan).
After airway pressure became stable, an ovalbumin solution (1 mg/ml, dissolved in physiological saline) was administered at a dose of 1 ml/kg via a tube with which the right jugular vein of guinea pigs was cannulated.
Each test compound was suspended in 0.5% CMC-Na solution and administered orally with an oral sound at a dose of 0.03 to 20 mg/2 ml/kg 60 minutes prior to the antigen-challenge. Control groups received only 0.5% CMC-Na solution in an equivalent amount. The pentobarbital-anesthetization and tracheal incision were conducted 30 minutes prior to the antigen-challenge.
Each percent reduction of increase in airway resistance (each test compound-administered group versus control group) was calculated according to the equation given below. ED50 was obtained by Probit method.

CYP2D6 = molecular target: T1, CYP2D6 (Homo sapiens, UniProt P10635); assay: Inhibition of drug-metabolizing enzyme CYP2D6 (CYP2D6/AMMC kit); format: in vitro ADME; conditions: CYP2D6-expressing microsomes, AMMC substrate, 37° C., 30 minutes; read-out: Inhibition of Drug-Metabolizing Enzymes (IC50; μM) CYP2D6
T1 construct: purchased BD Biosciences, NJ, USA; host or cells: CYP2D6-expressing system microsomes
T1 sequence (P10635 whole entry): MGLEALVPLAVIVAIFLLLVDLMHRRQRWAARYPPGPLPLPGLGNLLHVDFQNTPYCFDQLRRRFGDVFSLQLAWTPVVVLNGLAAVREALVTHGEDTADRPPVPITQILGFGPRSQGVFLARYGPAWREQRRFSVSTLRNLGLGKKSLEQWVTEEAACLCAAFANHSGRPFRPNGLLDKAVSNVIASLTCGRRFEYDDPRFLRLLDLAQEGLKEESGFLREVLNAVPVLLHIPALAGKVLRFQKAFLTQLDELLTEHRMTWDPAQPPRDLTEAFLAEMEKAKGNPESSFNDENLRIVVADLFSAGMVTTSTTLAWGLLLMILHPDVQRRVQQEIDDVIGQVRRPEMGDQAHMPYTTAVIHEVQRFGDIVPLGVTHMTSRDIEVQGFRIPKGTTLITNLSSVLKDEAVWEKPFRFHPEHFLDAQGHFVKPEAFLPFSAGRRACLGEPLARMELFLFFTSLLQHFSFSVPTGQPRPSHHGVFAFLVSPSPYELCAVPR
Description: (§1) The inhibitory effect on CYP2D6 and CYP3A4 was determined using High Throughput Inhibitor Screening Kits: CYP2D6/AMMC and CYP3A4/BFC (both from BD Biosciences, NJ, USA). Briefly, each of NADPH regenerating systems, cofactors, and test compounds was dispensed into 96-well plates, followed by addition of each of fluorescent substrates, AMMC (CYP2D6) or BFC (CYP3A4). To each well were added CYP2D6-expressing system microsomes or CYP3A4-expressing system microsomes, and the plates were incubated at 37° C. for 30 minutes, and then read for fluorescent signals (CYP2D6: ex=390 nm, em=460 nm; CYP3A4: ex=409 nm, em=538 nm wherein excitation wavelength: ex and emission wavelength: em). Thus, each inhibitory efficacy on enzymes CYP2D6 and CYP3A4 was determined. Roflumilast was used for the reference compound in this assay.

[2] = test system: lung eosinophil infiltration; assay: Inhibition of lung eosinophil infiltration (OVA-sensitized, BALF); format: in vivo, Hartley guinea-pigs; conditions: Cavia porcellus, guinea-pigs, oral, 1 hour before OVA inhalation, BALF eosinophils at 24 hours, read-out: Inhibition of Lung Eosinophil Infiltration ED50: mg/kg orally
Description: Hartley guinea-pigs were sensitized by inhaling twice 1% ovalbumin (OVA) in a physiological saline for 10 minutes with a nebulizer (Atom Medical Corporation, Japan) at an interval of 1 week. The animals were orally given a suspension of test compounds at a dose of 0.03 to 3 mg/2 mL/kg one week after the final sensitization. One hour later, the animals were exposed to antigens by inhalation of 2% OVA in a physiological saline for 5 minutes with a nebulizer. Thirty minutes before the antigen challenge, the animals were intraperitoneally pretreated with pyrilamine at a dose of 10 mg/kg to avoid fatality due to anaphylactic shock. Bronchoalveolar lavage fluid (BALF) samples were collected 24 hours after the exposure by inhalation of antigens, and eosinophils were counted.

Beagle dogs = assay: Emetic action on dogs; format: in vivo; conditions: oral, 1 mg/kg
Description: Beagle dogs received a suspension of each test compound in 0.5% CMC-Na solution orally at a dose of 1 mg/2 mL/kg.

CYP3A4 = molecular target: T2, CYP3A4 (Homo sapiens, UniProt P08684); assay: Inhibition of drug-metabolizing enzyme CYP3A4 (CYP3A4/BFC kit); format: in vitro ADME; conditions: CYP3A4-expressing microsomes, BFC substrate, 37° C., 30 minutes; read-out: Inhibition of Drug-Metabolizing Enzymes (IC50; μM) CYP3A4
T2 construct: purchased BD Biosciences, NJ, USA; host or cells: CYP3A4-expressing system microsomes
T2 sequence (P08684 whole entry): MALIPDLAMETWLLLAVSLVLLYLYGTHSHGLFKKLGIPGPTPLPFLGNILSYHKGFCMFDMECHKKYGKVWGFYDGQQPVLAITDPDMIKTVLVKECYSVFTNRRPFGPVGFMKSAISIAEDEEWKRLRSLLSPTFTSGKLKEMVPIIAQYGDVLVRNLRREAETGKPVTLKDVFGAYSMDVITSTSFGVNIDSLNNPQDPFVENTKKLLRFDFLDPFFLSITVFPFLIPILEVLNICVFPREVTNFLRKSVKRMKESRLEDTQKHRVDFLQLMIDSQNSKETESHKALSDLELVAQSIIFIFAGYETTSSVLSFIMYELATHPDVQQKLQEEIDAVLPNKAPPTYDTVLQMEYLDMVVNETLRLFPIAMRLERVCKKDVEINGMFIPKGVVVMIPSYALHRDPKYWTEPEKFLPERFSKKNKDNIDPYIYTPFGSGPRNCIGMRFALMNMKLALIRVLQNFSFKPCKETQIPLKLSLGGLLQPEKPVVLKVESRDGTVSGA
Description: as §1

[3] = test system: lung neutrophil infiltration; assay: Inhibition of lung neutrophil infiltration (LPS inhalation, BALF); format: in vivo, Hartley guinea-pigs; conditions: Cavia porcellus, guinea-pigs, oral, 1 hour before LPS inhalation, BALF neutrophils at 24 hours, read-out: Inhibition of Lung Neutrophil Infiltration ED50: mg/kg orally
Description: Hartley guinea-pigs were orally received a suspension of test compounds at a dose of 0.03 to 3 mg/2 mL/kg. One hour later, the animals were received 0.1 mg/mL lipopolylsaccharide (LPS) in a physiological saline via an inhalational route with a nebulizer for 30 minutes. Twenty-four hours after the LPS inhalation, BALF samples were collected, and neutrophils were counted.

IC50 (CYP2D6): 9.1 µM | IC50 (CYP3A4): 0.98 µM
Structure (SMILES): O=C(Nc1c(Cl)cncc1Cl)c1ccc(OC(F)F)c(OCC2CC2)c1 [Roflumilast, 3-(cyclopropylmethoxy)-N-(3,5-dichloro-4-pyridyl)-4-(difluoromethoxy)benzamide, reference compound]
ED50 (TNF-α production): 0.26 mg/kg | ED50 [1]: 0.66 mg/kg | ED50 [2]: 0.36 mg/kg | Occurrence of emesis (Beagle dogs): 2 animals among 3 were afflicted with emetic reactions | ED50 [3]: 0.98 mg/kg
